According to article PMC5570900, “Exploiting a novel conformational switch to control innate immunity mediated by complement protein C3a” (Nature Communications, 2017):

Columns and labels:
C3aR [1] = target: T1, C3aR (Rattus norvegicus, UniProt O55197); experiment: Antagonism of BR103-induced rat paw edema by oral C3aR antagonist; format: in vivo
T1 construct: characterize for the first time a C3aR-induced innate immune response in vivo in rats; from tissue; host or cells: live male Wistar rats, hind paw
T1 sequence (O55197 1-473): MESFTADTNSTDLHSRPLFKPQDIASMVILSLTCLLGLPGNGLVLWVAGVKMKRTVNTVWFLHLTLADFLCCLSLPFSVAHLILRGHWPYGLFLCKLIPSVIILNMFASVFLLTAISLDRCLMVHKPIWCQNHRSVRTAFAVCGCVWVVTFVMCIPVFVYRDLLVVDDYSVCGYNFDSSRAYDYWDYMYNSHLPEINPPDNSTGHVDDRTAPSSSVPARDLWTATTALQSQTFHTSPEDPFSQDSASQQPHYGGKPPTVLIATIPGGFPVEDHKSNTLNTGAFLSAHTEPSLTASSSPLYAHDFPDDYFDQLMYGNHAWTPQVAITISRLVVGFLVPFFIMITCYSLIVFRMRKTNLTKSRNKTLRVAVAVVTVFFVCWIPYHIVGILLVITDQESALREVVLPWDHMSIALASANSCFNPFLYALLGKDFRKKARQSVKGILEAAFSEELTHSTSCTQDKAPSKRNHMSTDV
Description: Male Wistar rats (8–9 weeks) were injected with BR103 (3, 350 μg in 100 μL isotonic saline) into the plantar surface of both hind paw pads using a 30G needle. The inhibitor cromolyn (20 mg/kg in 5% DMSO) was injected subcutaneously 30 min before the agonist. The antagonist BR111 (6, 5–20 mg/kg in olive oil) was administered orally as a single dose 2 h before the agonist. Paw thickness and width were measured using digital calipers (WPI) at 0, 0.5, 2, 6 and 24 h after agonist BR103 administration. Hind paw size is expressed as % change in area from baseline after 0.5 h and then normalized against maximum swelling induced by agonist alone. Researchers were not blinded to treatments given.
Rat paw tissue was collected and fixed in 4% paraformaldehyde (pH 7.4) for 2 h in the cold room (4 °C). The rat paw tissue was then transferred into falcon tubes containing 30% sucrose solution in PBS and left overnight in the cold room. The next day, rat paw tissue was embedded with the Optimal Cutting Temperature compound (OCT, Sakura Finetek, USA) and stored in the −80 °C freezer before being used for making cryo-sections for histological analysis. Frozen sections of 5 microns were prepared using a cryostat-microtome (Leica Biosystems, Germany) and stained using standard protocols on the same day. In normal histological staining, such as with alcian blue and safranin O and hematoxylin and eosin (H&E), samples were briefly washed with distilled water before staining. In alcian blue and safranin O, samples were stained with 0.1% alcian blue (Sigma-Aldrich, USA) and 0.5% safranin O (Sigma-Aldrich, USA) before being mounted in mounting medium. In H&E, samples were stained with hematoxylin (Sigma-Aldrich, USA) and 0.1% eosin (Sigma-Aldrich, USA) before being mounted in mounting medium. In immunohistochemistry, samples were briefly rinsed with PBS to remove OCT and incubated with blocking medium (PBS, 0.1% triton X-100, 10% horse serum) for 1 h at room temperature. Samples were incubated with primary antibody medium (PBS, 4% horse serum, 1:200 histamine or 1:200 of tryptase or 1:150 ED1 or 1:200 ED2 antibodies) overnight at 4 °C. The next day, samples were washed with PBS and were incubated with the secondary antibody medium (PBS, 4% horse serum, detection antibody 1:1000) for 1 h at room temperature. The samples were briefly rinsed, dried and counterstained with DAPI (Invitrogen, Australia). Primary antibodies for histamine (Sigma-Aldrich, USA, H2403, monoclonal rabbit anti-rat IgG, 1: 200), tryptase (Abcam, Australia, ab2378, monoclonal mouse anti-rat IgG, 1:200), ED1 (Serotec, UK, MCA341R, monoclonal mouse anti-rat, 1:150), ED2 (Serotec, UK, MCA3424R, monoclonal mouse anti-rat, 1:200) were purchased from commercial sources. Secondary detection antibody was purchased from (Invitrogen, Australia). ED1 & ED2 positive cells were quantified using FIJI/ImageJ 1.42q software, U.S. National Institutes of Health, Bethesda, MD, USA[44]. All microscope images were obtained using an Olympus BX-51 upright microscope with Olympus DP-71 12Mp colour camera, utilizing DP Capture and DP Manager software packages (Olympus, Tokyo, Japan). Researchers who performed histological analysis and scoring were blinded to the sample identity.
Rat paw tissues were collected and immediately frozen with liquid nitrogen. The frozen rat paw tissue samples were weighed and crushed into smaller pieces with a mortar and pestle in liquid nitrogen. […]

C3aR [2] = target: T2, C3aR (Homo sapiens, UniProt Q16581); experiment: Antagonism of agonist 3-induced iCa2+ release in HMDMs (Schild analysis); format: cell-based; parameters: Concentration-dependent Ca^2+ release in human monocyte-derived macrophages (HMDMs); endogenous in cells; host or cells: primary human monocyte-derived macrophages (HMDMs)
T2 sequence (Q16581 1-482): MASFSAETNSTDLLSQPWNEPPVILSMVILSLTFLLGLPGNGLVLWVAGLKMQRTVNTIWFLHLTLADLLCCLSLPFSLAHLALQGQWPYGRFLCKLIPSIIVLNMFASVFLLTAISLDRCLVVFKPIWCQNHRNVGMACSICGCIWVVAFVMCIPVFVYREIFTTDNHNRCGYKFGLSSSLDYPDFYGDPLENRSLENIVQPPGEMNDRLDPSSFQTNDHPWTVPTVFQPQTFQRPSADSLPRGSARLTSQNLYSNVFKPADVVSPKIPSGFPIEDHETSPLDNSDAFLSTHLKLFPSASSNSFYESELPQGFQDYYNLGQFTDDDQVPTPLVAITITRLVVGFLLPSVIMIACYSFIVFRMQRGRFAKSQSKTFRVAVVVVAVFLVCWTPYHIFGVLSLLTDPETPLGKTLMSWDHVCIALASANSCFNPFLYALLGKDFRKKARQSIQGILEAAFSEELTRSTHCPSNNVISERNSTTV
Description: HMDMs were seeded to a 96-well clear-bottom black-wall assay plate at a density of 5 × 10^4 cells per well and allowed to adhere overnight. Prior to assay, cells were incubated with dye-loading buffer (Hank’s balance salt solution (HBSS) buffer, 4 μM Fluo-3 AM, 25 μl Pluronic acid F-127 and 1% fetal bovine serum) for 1 h at 37 °C. Cells were then washed once with assay buffer (HBSS supplemented with 2.5 mM probenecid and 20 mM HEPES, pH 7.4). Intracellular calcium release was monitored using a fluorescence imaging plate reader (excitation 495 nm, emission 520 nm). The percentage responses were plotted against logarithmic concentrations of each test compound[42].

## N=C(N)NCCCC(NC(=O)c1ccc(C(c2ccccc2)c2ccccc2)s1)C(=O)O (stereo not shown) [Compound 6]
C3aR [1]; 20 mg/kg p.o., 2 h prior, 0.5 h
  Effect on BR103-induced infiltration of ED1 macrophages: prevented the increased infiltration of inflammatory ED1 macrophages
C3aR [1]; 20 mg/kg p.o., 2 h prior, 30 min
  Effect on BR103-induced proinflammatory cytokine and chemokine gene expression: suppression of BR103-induced gene expression of proinflammatory cytokines and chemokines
C3aR [1]; 20 mg/kg p.o., 2 h prior, 0.5 h after agonist
  Effect on BR103-induced mast cell activation and degranulation and histamine secretion: attenuated
C3aR [1]; 20 mg/kg p.o., 2 h prior, 6 h after BR103
  Effect on BR103-induced neutrophil activation (MPO activity): attenuated neutrophil activation at 6 h
C3aR [1]; oral pretreatment 2 h before BR103 350 µg/paw i.pl., 5–20 mg/kg p.o., swelling at 30 min
  Effect on BR103-induced paw edema: strongly inhibited acute rat paw edema
C3aR [2]
  Mode of antagonism of agonist 3-induced Ca2+ release: insurmountable antagonism
C3aR [2]; agonist 3 with 0–1000 nM antagonist 6, pre-treated 30 min, r2 = 0.99
  Schild plot slope: 0.77 ± 0.05
